Source: the NIST ThermoML archive (doi:10.1016/j.jct.2018.09.023)
Numbers after ± are expanded uncertainties.

Assays:
[1] = activity coefficient (dimensionless); of the first substance listed, at infinite dilution; xn = mol fraction of the nth substance listed; conditions: 101.33 kPa, Liquid, Chromatography, x1 = 0
[2] = 101.3 kPa, Liquid, Vibrating tube method

Row | activity coefficient ([1]; 323.15 K) | activity coefficient ([1]; 333.15 K) | activity coefficient ([1]; 343.15 K) | activity coefficient ([1]; 353.15 K) | activity coefficient ([1]; 363.15 K) | mass density ([2]; 323.15 K) [kg/m3] | mass density ([2]; 333.15 K) [kg/m3] | mass density ([2]; 343.15 K) [kg/m3] | mass density ([2]; 353.15 K) [kg/m3] | mass density ([2]; 363.15 K) [kg/m3] | Structure (SMILES)
1 | 0.52 ± 0.057 | 0.5 ± 0.055 | 0.485 ± 0.054 | 0.471 ± 0.053 | 0.462 ± 0.052 | – | – | – | – | – | CCC(C)O (stereo not given) [butan-2-ol] + CCC[n+]1ccn(C)c1.[Br-]
2 | 0.692 ± 0.072 | 0.651 ± 0.069 | 0.619 ± 0.066 | 0.592 ± 0.063 | 0.575 ± 0.062 | – | – | – | – | – | CCCCCO [pentan-1-ol] + CCC[n+]1ccn(C)c1.[Br-]
3 | 111 ± 12 | 107 ± 11 | 104 ± 11 | 100 ± 11 | 97.7 ± 10 | – | – | – | – | – | CCCCCCCC [octane] + CCC[n+]1ccn(C)c1.[Br-]
4 | 0.279 ± 0.038 | 0.268 ± 0.037 | 0.258 ± 0.036 | 0.25 ± 0.036 | 0.244 ± 0.035 | – | – | – | – | – | CCCO [propan-1-ol] + CCC[n+]1ccn(C)c1.[Br-]
5 | 102 ± 11 | 98.9 ± 10 | 95.6 ± 10 | 92.5 ± 9.7 | 89.9 ± 9.5 | – | – | – | – | – | CCCCCC [hexane] + CCC[n+]1ccn(C)c1.[Br-]
6 | – | – | – | – | – | 1317.74 ± 2.5 | 1310.86 ± 2.5 | 1304.04 ± 2.4 | 1297.27 ± 2.4 | 1290.33 ± 2.4 | CCC[n+]1ccn(C)c1.[Br-] [1-methyl-3-propylimidazolium bromide]
7 | 0.438 ± 0.05 | 0.417 ± 0.048 | 0.402 ± 0.047 | 0.388 ± 0.046 | 0.379 ± 0.045 | – | – | – | – | – | CCCCO [butan-1-ol] + CCC[n+]1ccn(C)c1.[Br-]
8 | 5.48 ± 0.58 | 5.67 ± 0.6 | 5.84 ± 0.61 | 6.01 ± 0.63 | 6.19 ± 0.65 | – | – | – | – | – | CCc1ccccc1 [ethylbenzene] + CCC[n+]1ccn(C)c1.[Br-]
9 | 130 ± 14 | 124 ± 13 | 118 ± 12 | 112 ± 12 | 108 ± 11 | – | – | – | – | – | CCCCCCCCCC [decane] + CCC[n+]1ccn(C)c1.[Br-]
10 | 3.68 ± 0.39 | 3.86 ± 0.41 | 4.07 ± 0.43 | 4.27 ± 0.45 | 4.46 ± 0.47 | – | – | – | – | – | CCOC(C)=O [ethyl acetate] + CCC[n+]1ccn(C)c1.[Br-]
11 | 0.62 ± 0.066 | 0.587 ± 0.063 | 0.564 ± 0.061 | 0.548 ± 0.059 | 0.531 ± 0.058 | – | – | – | – | – | CC(C)CCO [3-methylbutan-1-ol] + CCC[n+]1ccn(C)c1.[Br-]
12 | 119 ± 13 | 115 ± 12 | 110 ± 12 | 106 ± 11 | 103 ± 11 | – | – | – | – | – | CCCCCCCCC [nonane] + CCC[n+]1ccn(C)c1.[Br-]
13 | 106 ± 11 | 102 ± 11 | 98.5 ± 10 | 95.4 ± 10 | 92.5 ± 9.7 | – | – | – | – | – | CCCCCCC [heptane] + CCC[n+]1ccn(C)c1.[Br-]

Continued, compound first:

Row | Structure (SMILES) | activity coefficient ([1]; 323.15 K) | activity coefficient ([1]; 333.15 K) | activity coefficient ([1]; 343.15 K) | activity coefficient ([1]; 353.15 K) | activity coefficient ([1]; 363.15 K) | mass density ([2]; 323.15 K) [kg/m3] | mass density ([2]; 333.15 K) [kg/m3] | mass density ([2]; 343.15 K) [kg/m3] | mass density ([2]; 353.15 K) [kg/m3] | mass density ([2]; 363.15 K) [kg/m3]
14 | c1ccccc1 [benzene] + CCC[n+]1ccn(C)c1.[Br-] | 1.7 ± 0.18 | 1.79 ± 0.19 | 1.89 ± 0.2 | 2 ± 0.21 | 2.11 ± 0.22 | – | – | – | – | –
15 | C1=CCCCC1 [cyclohexene] + CCC[n+]1ccn(C)c1.[Br-] | 21.7 ± 2.3 | 20.6 ± 2.2 | 19.7 ± 2.1 | 18.8 ± 2 | 18.1 ± 1.9 | – | – | – | – | –
16 | CC(C)=O [acetone] + CCC[n+]1ccn(C)c1.[Br-] | 1.06 ± 0.11 | 1.14 ± 0.12 | 1.21 ± 0.12 | 1.29 ± 0.13 | 1.37 ± 0.14 | – | – | – | – | –
17 | C1COCCO1 [1,4-dioxane] + CCC[n+]1ccn(C)c1.[Br-] | 1.01 ± 0.1 | 1.05 ± 0.11 | 1.11 ± 0.11 | 1.17 ± 0.12 | 1.23 ± 0.13 | – | – | – | – | –
18 | CC(C)CO [2-methyl-1-propanol] + CCC[n+]1ccn(C)c1.[Br-] | 0.426 ± 0.049 | 0.406 ± 0.047 | 0.39 ± 0.046 | 0.378 ± 0.045 | 0.368 ± 0.044 | – | – | – | – | –
19 | CC(C)CC(C)(C)C [2,2,4-trimethylpentane] + CCC[n+]1ccn(C)c1.[Br-] | 115 ± 12 | 111 ± 12 | 108 ± 11 | 104 ± 11 | 101 ± 11 | – | – | – | – | –
20 | CO [methanol] + CCC[n+]1ccn(C)c1.[Br-] | 0.112 ± 0.03 | 0.108 ± 0.03 | 0.106 ± 0.03 | 0.103 ± 0.03 | 0.102 ± 0.03 | – | – | – | – | –
21 | Cc1ccccc1 [toluene] + CCC[n+]1ccn(C)c1.[Br-] | 2.95 ± 0.31 | 3.11 ± 0.33 | 3.33 ± 0.35 | 3.5 ± 0.37 | 3.72 ± 0.39 | – | – | – | – | –
22 | CCO [ethanol] + CCC[n+]1ccn(C)c1.[Br-] | 0.208 ± 0.033 | 0.197 ± 0.033 | 0.19 ± 0.032 | 0.184 ± 0.032 | 0.18 ± 0.032 | – | – | – | – | –
23 | ClCCl [dichloromethane] + CCC[n+]1ccn(C)c1.[Br-] | 0.27 ± 0.04 | 0.29 ± 0.04 | 0.31 ± 0.04 | 0.34 ± 0.04 | 0.38 ± 0.05 | – | – | – | – | –
24 | Cc1cccc(C)c1 [1,3-dimethylbenzene] + CCC[n+]1ccn(C)c1.[Br-] | 5.91 ± 0.62 | 6.04 ± 0.63 | 6.18 ± 0.65 | 6.33 ± 0.67 | 6.47 ± 0.68 | – | – | – | – | –
25 | CC1CCCCC1 [methylcyclohexane] + CCC[n+]1ccn(C)c1.[Br-] | 82.3 ± 8.7 | 79.9 ± 8.4 | 77.5 ± 8.2 | 75.2 ± 7.9 | 73.2 ± 7.7 | – | – | – | – | –
26 | CC(C)O [propan-2-ol] + CCC[n+]1ccn(C)c1.[Br-] | 0.373 ± 0.044 | 0.359 ± 0.043 | 0.344 ± 0.042 | 0.334 ± 0.042 | 0.326 ± 0.041 | – | – | – | – | –
27 | Cc1ccc(C)cc1 [1,4-dimethylbenzene] + CCC[n+]1ccn(C)c1.[Br-] | 5.65 ± 0.59 | 5.8 ± 0.61 | 5.95 ± 0.63 | 6.11 ± 0.64 | 6.3 ± 0.66 | – | – | – | – | –
28 | ClC(Cl)(Cl)Cl [tetrachloromethane] + CCC[n+]1ccn(C)c1.[Br-] | 0.78 ± 0.08 | 0.86 ± 0.09 | 0.96 ± 0.1 | 1.07 ± 0.11 | 1.17 ± 0.12 | – | – | – | – | –
29 | CC#N [acetonitrile] + CCC[n+]1ccn(C)c1.[Br-] | 0.37 ± 0.04 | 0.39 ± 0.05 | 0.41 ± 0.05 | 0.44 ± 0.05 | 0.48 ± 0.05 | – | – | – | – | –
30 | Cc1ccccc1C [1,2-dimethylbenzene] + CCC[n+]1ccn(C)c1.[Br-] | 4.19 ± 0.44 | 4.3 ± 0.45 | 4.49 ± 0.47 | 4.71 ± 0.49 | 4.97 ± 0.52 | – | – | – | – | –
31 | ClC(Cl)Cl [trichloromethane] + CCC[n+]1ccn(C)c1.[Br-] | 0.13 ± 0.03 | 0.15 ± 0.03 | 0.16 ± 0.03 | 0.18 ± 0.03 | 0.2 ± 0.03 | – | – | – | – | –
32 | C1CCOC1 [tetrahydrofuran] + CCC[n+]1ccn(C)c1.[Br-] | 2.11 ± 0.22 | 2.19 ± 0.23 | 2.28 ± 0.24 | 2.37 ± 0.25 | 2.47 ± 0.26 | – | – | – | – | –
33 | C1CCCCC1 [cyclohexane] + CCC[n+]1ccn(C)c1.[Br-] | 66.2 ± 7 | 64.5 ± 6.8 | 62.9 ± 6.6 | 61.6 ± 6.5 | 60.4 ± 6.4 | – | – | – | – | –
34 | C=Cc1ccccc1 [styrene] + CCC[n+]1ccn(C)c1.[Br-] | 1.83 ± 0.19 | 1.92 ± 0.2 | 2 ± 0.21 | 2.08 ± 0.22 | 2.17 ± 0.23 | – | – | – | – | –
